From patent publication US20090298903A1, “USE OF TETRAMIC ACID DERIVATIVES FOR INSECT CONTROL” (priority 2006, published 2009)

How the values were obtained:
Format in all cases: in vivo
Ceratitis capitata = assay: Example 20: peach trees against Ceratitis capitata; conditions: animals on fruits
Experimental: Peach trees cv. “Oom Sarel” which are approximately 10 years old are treated, in three replications, against Ceratitis capitata. The application is carried out with a high-pressure sprayer or a knapsack sprayer which is operated with pressurized air. Here, the active substance Example (I-4) (150 OD) and the commercial standard Fenthion (500 EC) are tested at the specified application rates. The water application rate is 2500 l/ha. Three applications are carried out at an interval of 7 and 19 days, respectively.
The test is evaluated 9 and 16 days after treatment 3 by scoring the destruction rate of the animals on the fruits with the aid of the Abbott formula.

Ceutorhynchus napi = assay: Example 26-A: oilseed rape against Ceutorhynchus napi; conditions: 55 d after treatment, larvae, Deltamethrin (25 EC) 5, (I-4) (+ 0.2% rapeseed oil methyl ester) 72, Thiacloprid (OD 240) 72, Lambda-cyhalothrin 5 g a.s./ha
Experimental: Plots approx. 25 m^2 in size which are planted with oilseed rape cv. “Artus” are treated, in four replications, against Ceutorhynchus napi. The application is carried out with a motor-operated knapsack sprayer. Here, the active substance Example (I-4), in a tank mix with 0.2% a.s. rapeseed oil methyl ester (500 EW) and the commercial standards Deltamethrin (25 EC), lambda-cyhalothrin (S100) and Thiacloprid (OD 240), is tested at the specified application rates. The water application rate is 250 l/ha.
The test is evaluated 55 days after the treatment by scoring the destruction rate of the larvae on the plants.

Dacus ciliatus = assay: Example 22A: bottle gourds against Dacus ciliatus
Experimental: Plots approx. 10 m^2 in size which are planted with bottle gourds cv. “Waltham” are treated, in three replications, against Dacus ciliatus. The application is carried out with a motor-operated knapsack sprayer. Here, the active substance Example (I-4) (150 OD) and the commercial standard Fenthion (500 EC) are tested at the specified application rates. Three applications are carried out at in each case an interval of 7 days. The water application rate is approx. 500 l/ha.
The test is evaluated 8, 14 and 21 days after treatment 1 by scoring the infestation of the fruits.

[1] = test system: Frankliniella occidentalis; assay: Example 2: bell peppers against Frankliniella occidentalis; conditions: Acrinathrin 60, (I-9) 54, (I-4) 60 g a.s./ha, (I-9)/(I-4) 240 SC + 0.1% rapeseed oil methyl ester
Experimental: Plots 10 m^2 in size which are planted with bell peppers cv. “Zingaro” are treated, in three replications, against Frankliniella occidentalis. The application is effected with a knapsack sprayer which is operated with pressurized air. Here, the active substances Example (I-9) (240 SC) and Example (I-4) (240 SC), in the form of a tank mix together with 0.1% a.s. rapeseed oil methyl ester (500 EW) and the commercial standard acrinathrin (075 EW), are applied at the specified application rates. Two applications are carried out at an interval of 24 days, with a water application rate of 1000 l/ha.
The test is evaluated 17 and 21 days after treatment 1 and 4 days after treatment 2 by scoring the destruction of the animals (nymphs) on the flowers.

Q: Which results are given for `CCOC(=O)OC1=C(c2cc(C)ccc2C)C(=O)N[C@]12CC[C@@H](OC)CC2` [Example (I-4)]?
A: Efficacy (% Abbott) 16 d after treatment 3 (Ceratitis capitata; Fenthion 1700, (I-4) 100 g a.s./ha): 100 % Abbott; Efficacy (% Abbott) 9 d after treatment 3 (Ceratitis capitata; Fenthion (500 EC) 1700, (I-4) (150 OD) 100 g a.s./ha): 86.7 % Abbott; Efficacy (% Abbott) 55 d (Ceutorhynchus napi): 74.3 % Abbott; Efficacy (% Abbott) 8 d (Dacus ciliatus; 8 d after treatment 1, infestation of fruits, Fenthion (500 EC) 300, (I-4) (150 OD) 200 g a.s./ha, three applications, 7-day intervals): 59.5 % Abbott; Efficacy (% Abbott) 14 d (Dacus ciliatus; 14 d after treatment 1, Fenthion 300, (I-4) 200 g a.s./ha): 48.9 % Abbott; Efficacy (% Abbott) 21 d (Dacus ciliatus; 21 d after treatment 1, Fenthion 300, (I-4) 200 g a.s./ha): 44.5 % Abbott; Efficacy (% Abbott) 4 d (2) ([1]; 4 d after treatment 2, nymphs on flowers): 80 % Abbott; Efficacy (% Abbott) 17 d (1) ([1]; 17 d after treatment 1, nymphs on flowers): 71 % Abbott; Efficacy (% Abbott) 21 d (1) ([1]; 21 d after treatment 1, nymphs on flowers): 85 % Abbott
